From patent publication US20060127505A1, “Anti-inflammatory formulations” (priority 2002, published 2006)
Entries after “also recorded” stand apart in the source; their conditions may differ. Marks after values point to notes of the source that are not given here.

How the values were obtained:
[1] = tested on: ovalbumin(OA)-induced asthma in guinea pigs; assay: Ovalbumin-induced asthma in guinea pigs: inflammatory cells in BAL fluid; type: in vivo, guinea pig; settings: for Eosinophils / Macrophages / Neutrophils: BAL fluid 24 hours after OV challenge
Protocol: The effect combinations of vitamin C, astaxanthin, and ginkolide on asthma-associated disease parameters ovalbumin(OA)-induced asthma in guinea pigs was evaluated. Twenty-four hours following OA challenge, animals are sacrificed and numbers of inflammatory cells (eosinophils, neutrophils, macrophages) are measured in bronchoalveolar lavage (BAL) fluid; and cAMP and cGMP concentrations in the lung tissue. The experiments were carried out as follows. Male Hartley guinea pigs (250-350 g) were sensitized by intramuscular injections of 0.35 ml of a 5% (W/V) ovalbumin (OA)/saline solution into each thigh on days 1 and 4. Guinea pigs were ready for asthmatic challenge after 25 days of ovalbumin injection. Asthmatic challenge was carried out with ovalbumin aerosol, and bronchoalveolar lavage (BAL) was done 24 hours later. The numbers of eosinophils, neutrophils, and macrophages in the BAL fluid were counted. Twenty-four hours after the aerosol OA challenge, guinea pigs were killed by cervical dislocation and exsanguinated by severing the axillary arteries. Lungs were lavaged with 50 ml of DulBecco's phosphate-buffered saline (aliquots of 10 ml), which were aspirated after gentle chest massage. BAL fluid was centrifuged at 2200 rpm (1100×g) for 10 min, supernatant was aspirated, and pellets were resuspended in 5 ml 0.25% NaCl to lyse residual erythrocytes. This dispersion was centrifuged at 2200 rpm (1100×g) for 10 min, supernatant was aspirated, and pellets were resuspended 5 ml 0.9% NaCl. Total cell counts were done by hemocytometry using trypan blue stain. Slides were prepared on a Shandon Cytospin 2 (Pittsburgh, Pa.) at 300 rpm for 5 min, fixed and stained. Differential cell counts were done using standard morphologic criteria to classify cells as eosinophils, neutrophils, or macrophages, and the results were expressed in cell numbers. The dose-responsive effect of AX, EGb761, and vitamin C administered independently for suppression of asthma-associated parameters in allergen-induced, asthmatic guinea pigs was determined. Ibuprophen (IB) was used as the positive control. Concentration of inflammatory cells in bronchoalveolar lavage (BAL) fluid and levels of cAMP and cGMP in lung tissue were measured in guinea pigs 24 hours following challenge with OV. Data is reported as mean±SD of measurements taken in 6 animals per dosage cohort. *p<0.05 compared to corresponding values of OV antigen-challenged, drug-free control group. The dose-responsive effect of AX, EGb761, and vitamin C administered in combination for suppression of asthma-associated parameters in allergen-induced, asthmatic guinea pigs was determined. The combination of these three components was given each day for each guinea pig as a “cocktail”. Concentration of inflammatory cells in bronchoalveolar lavage (BAL) fluid and levels of cAMP and cGMP in lung tissue were measured in guinea pigs 24 hours following challenge with OV. Data is reported as mean±SD of measurements taken in 6 animals per dosage cohort. *p<0.05 compared to corresponding values of OV antigen-challenged, drug-free control group.

PMA/I-treated human PBMC = assay: Inflammation-associated T cell surface antigens (CD25, CD54) in PMA/I-treated human PBMC, two-color flow cytometry; type: cell-based
Protocol: In vitro studies indicate that astaxanthin suppresses expression of inflammation-associated T cell surface antigens in PMA/I-treated human PBMC. […]
Analysis of blood for representation by selected lymphocyte subpopulations was conducted by two-color flow cytometry.

[2] = Allergy symptoms in an allergy patient; type: in vivo, human
Protocol: Astaxanthin or astaxanthin plus a cetirizine together was administered to an allergy patient.

Which Eosinophils ([1]; 5 mg/kg) does the source give for `CC1=C(/C=C/C(C)=C/C=C/C(C)=C/C=C/C=C(C)/C=C/C=C(C)/C=C/C2=C(C)C(=O)[C@@H](O)CC2(C)C)C(C)(C)C[C@H](O)C1=O` [astaxanthin, 3,3′-dihydroxy-4,4′-diketo-B-carotene] here?
The Eosinophils was 5.0 ± 0.7 cell × 10^6/animal.

And the Macrophages ([1]; 5 mg/kg)?
The Macrophages was 9.6 ± 1.0 cell × 10^6/animal.

And the Neutrophils ([1]; 5 mg/kg)?
The Neutrophils was 5.4 ± 0.8 cell × 10^5/animal.

What about the Eosinophils ([1]; 10 mg/kg) of the same compound?
Its Eosinophils is 4.6 ± 0.6 cell × 10^6/animal.

What about the Macrophages ([1]; 10 mg/kg) of the same compound?
The Macrophages was 8.0 ± 0.8 cell × 10^6/animal.

What about the Neutrophils ([1]; 10 mg/kg) of the same compound?
Its Neutrophils is 5.1 ± 0.6 cell × 10^5/animal.

And the Eosinophils ([1]; 30 mg/kg)?
The Eosinophils was 3.1 ± 0.5* cell × 10^6/animal.

And the Macrophages ([1]; 30 mg/kg)?
Its Macrophages is 3.7 ± 0.7* cell × 10^6/animal.

And the Neutrophils ([1]; 30 mg/kg)?
The Neutrophils was 3.3 ± 0.8* cell × 10^5/animal.

What about the Eosinophils ([1]; 100 mg/kg) of the same compound?
The Eosinophils was 2.4 ± 0.6* cell × 10^6/animal.

And the Macrophages ([1]; 100 mg/kg)?
The Macrophages was 2.70 ± 0.7* cell × 10^6/animal.

What about the Neutrophils ([1]; 100 mg/kg) of the same compound?
The Neutrophils was 2.4 ± 0.5* cell × 10^5/animal.

What about the Eosinophils ([1]; 200 mg/kg) of the same compound?
The Eosinophils was 2.3 ± 0.5* cell × 10^6/animal.

And the Macrophages ([1]; 200 mg/kg)?
The Macrophages was 2.6 ± 0.5* cell × 10^6/animal.

And the Neutrophils ([1]; 200 mg/kg)?
The Neutrophils was 2.0 ± 0.4* cell × 10^5/animal.

And the “protection against OV-induced asthma” value ([1]; components used separately: 10 mg/kg AX, 200 mg/kg vit C, 10 mg/kg GB, listed as AX)?
The value was “failed to protect; also recorded: failed to reduce the severity of asthma”.

And the “% CD3+CD54+ cells” value (PMA/I-treated human PBMC; Subject A, first column, 10^-6 M)?
The value was 4.2%.

And the “% CD3+CD54+ cells” value (PMA/I-treated human PBMC; Subject A, first column, 10^-7 M)?
Its value is 8.4%.

What about the “% CD3+CD54+ cells” value (PMA/I-treated human PBMC; Subject A, second column, 10^-6 M) of the same compound?
Its value is 3.3%.

And the “% CD3+CD54+ cells” value (PMA/I-treated human PBMC; Subject A, second column, 10^-7 M)?
Its value is 10.6%.

And the “% CD3+CD54+ cells” value (PMA/I-treated human PBMC; Subject B, first column, 10^-6 M)?
The value was 6.3%.

What about the “% CD3+CD54+ cells” value (PMA/I-treated human PBMC; Subject B, first column, 10^-7 M) of the same compound?
The value was 16.2%.

What about the “% CD3+CD54+ cells” value (PMA/I-treated human PBMC; Subject B, second column, 10^-6 M) of the same compound?
The value was 10.3%.

And the “% CD3+CD54+ cells” value (PMA/I-treated human PBMC; Subject B, second column, 10^-7 M)?
Its value is 21.9%.

And the “alleviation of allergy symptoms such as itching” value [2]?
Its value is “did not result in alleviation of allergy symptoms”.
